We go through one compound from ChEMBL document CHEMBL5120893, “A Neuropeptide Y/F-like Polypeptide Derived from the Transcriptome of Turbinaria peltata Suppresses LPS-Induced Astrocytic Inflammation” (J Nat Prod, 2022).

Each structure is given as a SMILES string. The source made the active and inactive calls. The calls are words filed in the database; no cut-off is given here. Residues, ends and D or L forms follow the SMILES beside them.

Data set [1] has as its system C8-D1A. Kind of data set: Antiinflammatory activity against mouse C8D1A cells assessed as inhibition of LPS-induced IL-6 mRNA expression at 0.75 to 3 uM pretreated for 4 hrs followed by LPS stimulation measured after 24 hrs by real time PCR analysis. The following applies: dose 0.75-3 µM, time 28.0 hrs. Type of data set: functional, cell-based. (In general: Real-time PCR tracks product formation cycle by cycle.)

Data set [2] deals with C8-D1A. Briefly: Antiinflammatory activity against mouse C8D1A cells assessed as inhibition of LPS-induced TNFalpha production at 0.75 to 3 uM pretreated for 4 hrs followed by LPS stimulation measured after 24 hrs by ELISA. Type of data set: functional, cell-based. The following applies: dose 0.75-3 µM, time 28.0 hrs. Background: ELISA stands for enzyme-linked immunosorbent assay.

Data set [3] has as its system C8-D1A. Kind of data set: Antiinflammatory activity against mouse C8D1A cells assessed as inhibition of LPS-induced iNOS expression at 3 uM by Western blotting analysis. Type of data set: functional, cell-based. On the technique in general: A western blot detects proteins with antibodies after separation by electrophoresis.
For data set [4], the system named is C8-D1A. Briefly: Antiinflammatory activity against mouse C8D1A cells assessed as inhibition of LPS-induced ROS production measured after 24 hrs by fluorescent CM-H2DCFDA based flow cytometry. To be noted: dose 0.75-3 µM, DDE = dose-dependent effect. Type of data set: functional, cell-based.
For data set [5], the system named is C8-D1A. Briefly: Antiinflammatory activity against mouse C8D1A cells assessed as inhibition of LPS-induced NO production at 3 uM measured after 24 hrs by Griess method. Type of data set: functional, cell-based.
Data set [6] relates to C8-D1A. Kind of data set: Antiinflammatory activity against mouse C8D1A cells assessed as inhibition of LPS-induced IL-1beta mRNA expression at 0.75 to 3 uM pretreated for 4 hrs followed by LPS stimulation measured after 24 hrs by real time PCR analysis. Type of data set: functional, cell-based. The following applies: dose 0.75-3 µM, time 28.0 hrs.
The target in data set [7] is T1, Inhibitor of nuclear factor kappa-B kinase subunit beta (Mus musculus) (UniProt O88351).
T1 sequence (whole entry): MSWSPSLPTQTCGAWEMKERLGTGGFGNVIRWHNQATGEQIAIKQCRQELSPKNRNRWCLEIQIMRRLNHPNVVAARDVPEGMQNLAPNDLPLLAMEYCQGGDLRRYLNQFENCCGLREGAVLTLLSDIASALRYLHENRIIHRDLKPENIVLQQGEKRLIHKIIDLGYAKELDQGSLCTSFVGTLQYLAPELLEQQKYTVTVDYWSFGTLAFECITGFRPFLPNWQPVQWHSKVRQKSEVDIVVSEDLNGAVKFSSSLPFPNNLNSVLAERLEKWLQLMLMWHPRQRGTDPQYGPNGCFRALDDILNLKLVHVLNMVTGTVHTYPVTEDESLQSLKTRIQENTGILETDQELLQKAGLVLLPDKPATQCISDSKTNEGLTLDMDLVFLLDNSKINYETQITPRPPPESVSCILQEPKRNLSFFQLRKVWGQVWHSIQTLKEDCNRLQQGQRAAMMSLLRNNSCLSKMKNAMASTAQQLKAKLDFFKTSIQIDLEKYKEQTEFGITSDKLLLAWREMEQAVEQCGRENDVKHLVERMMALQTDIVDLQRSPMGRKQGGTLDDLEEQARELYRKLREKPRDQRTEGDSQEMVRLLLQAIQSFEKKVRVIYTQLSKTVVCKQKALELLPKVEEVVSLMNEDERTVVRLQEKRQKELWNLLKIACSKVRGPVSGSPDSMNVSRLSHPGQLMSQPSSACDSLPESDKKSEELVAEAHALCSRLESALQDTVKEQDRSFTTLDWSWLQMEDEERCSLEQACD
Briefly: Inhibition of IkappaBalpha phosphorylation at […] in LPS-induced mouse C8D1A cells at 0.75 to 3 uM pretreated for 4 hrs followed by LPS stimulation measured after 24 hrs by Western blotting analysis. Type of data set: cell-based. The following applies: dose 0.75-3 µM.

The test system of data set [8] is C8-D1A. Briefly: Effect on LPS-induced inflammasome activation in mouse C8D1A cells assessed as reduction in NLRP3 protein level at 0.75 to 3 uM by Western blotting analysis. Type of data set: functional, cell-based. To be noted: dose 0.75-3 µM.
The test system of data set [9] is C8-D1A. Briefly: Antiinflammatory activity against mouse C8D1A cells assessed as inhibition of LPS-induced iNOS expression at 3 uM in presence of Y1R antagonist BIIE-0246 by Western blotting analysis. Type of data set: functional, cell-based.
Data set [10] has as its system C8-D1A. Briefly: Antiinflammatory activity against mouse C8D1A cells assessed as inhibition of LPS-induced NO production at 3 uM measured after 24 hrs in presence of Y1R antagonist BIIE-0246 by Griess method. Type of data set: functional, cell-based.
Data set [11] concerns C8-D1A. Kind of data set: Antiinflammatory activity against mouse C8D1A cells assessed as inhibition of LPS-induced NO production measured after 24 hrs by Griess method. Type of data set: functional, cell-based. To be noted: dose 0.75-6 µM, DDE = dose-dependent effect.
Data set [12] relates to C8-D1A. Briefly: Inhibition of LPS-induced mouse C8D1A cell viability loss assessed as restoration of cell viability at 0.75 to 6 uM after 24 hrs by MTT assay. Type of data set: functional, cell-based. The following applies: dose 0.75-6 µM.
Data set [13] relates to C8-D1A. Kind of data set: Antiinflammatory activity against mouse C8D1A cells assessed as inhibition of LPS-induced TNFalpha mRNA expression at 0.75 to 3 uM pretreated for 4 hrs followed by LPS stimulation measured after 24 hrs by real time PCR analysis. Type of data set: functional, cell-based. The following applies: dose 0.75-3 µM, time 28.0 hrs.
Data set [14] concerns C8-D1A. Briefly: Antiinflammatory activity against mouse C8D1A cells assessed as inhibition of LPS-induced IL-6 production at 0.75 to 3 uM pretreated for 4 hrs followed by LPS stimulation measured after 24 hrs by ELISA. The following applies: dose 0.75-3 µM, time 28.0 hrs. Type of data set: functional, cell-based.
Data set [15] relates to C8D1A. Briefly: Inhibition of NFkappaB p65 phosphorylation at […] in LPS-induced mouse C8D1A cells at 0.75 to 3 uM pretreated for 4 hrs followed by LPS stimulation measured after 24 hrs by Western blotting analysis. Type of data set: cell-based. To be noted: dose 0.75-3 µM.
The subject of data set [16] is C8-D1A. Kind of data set: Effect on LPS-induced inflammasome activation in mouse C8D1A cells assessed as reduction in caspase 1 protein level at 0.75 to 3 uM by Western blotting analysis. Type of data set: functional, cell-based. The following applies: dose 0.75-3 µM.
The subject of data set [17] is C8-D1A. Briefly: Antiinflammatory activity against mouse C8D1A cells assessed as inhibition of LPS-induced iNOS production by Western blotting analysis. Type of data set: functional, cell-based. To be noted: dose 0.75-3 µM, DDE = dose-dependent effect.
Data set [18] has as its system C8-D1A. Briefly: Antiinflammatory activity against mouse C8D1A cells assessed as inhibition of LPS-induced GFAP production at 0.75 to 3 uM pretreated for 4 hrs followed by LPS stimulation measured after 24 hrs by DMI-8 microscopy. Type of data set: functional, cell-based. To be noted: dose 0.75-3 µM, time 28.0 hrs.
In data set [19] the test system is C8-D1A. Kind of data set: Cytotoxicity against mouse C8D1A cells assessed as cell viability at 0.75 to 50 uM after 24 hrs by MTT assay. Type of data set: toxicity, cell-based. The following applies: dose 0.75-50 µM.
The target in data set [20] is Inhibitor of nuclear factor kappa-B kinase subunit alpha/beta (Mus musculus) (UniProt Q60680+O88351). Kind of data set: Inhibition of IKKalpha/beta phosphorylation at Ser176/180 in LPS-induced mouse C8D1A cells at 0.75 to 3 uM pretreated for 4 hrs followed by LPS stimulation measured after 24 hrs by Western blotting analysis. Type of data set: cell-based. The following applies: dose 0.75-3 µM.

In data set [21] the test system is C8-D1A. Briefly: Antiinflammatory activity against mouse C8D1A cells assessed as inhibition of LPS-induced IL-1beta production at 0.75 to 3 uM pretreated for 4 hrs followed by LPS stimulation measured after 24 hrs by ELISA. Type of data set: functional, cell-based. The following applies: dose 0.75-3 µM, time 28.0 hrs.

In the case of `CC[C@H](C)[C@H](NC(=O)[C@@H](NC(=O)[C@@H](NC(=O)[C@H](Cc1ccc(O)cc1)NC(=O)[C@H](Cc1ccc(O)cc1)NC(=O)CNC(=O)[C@H](C)NC(=O)[C@H](CC(C)C)NC(=O)[C@H](CC(=O)O)NC(=O)[C@H](CO)NC(=O)[C@H](CC(C)C)NC(=O)[C@H](Cc1ccc(O)cc1)NC(=O)[C@H](C)NC(=O)[C@H](CC(N)=O)NC(=O)[C@H](CC(C)C)NC(=O)[C@H](CCC(=O)O)NC(=O)[C@H](C)NC(=O)[C@H](CCSC)NC(=O)[C@H](CO)NC(=O)[C@H](CCCCN)NC(=O)[C@H](Cc1ccccc1)NC(=O)[C@H](CO)NC(=O)[C@H](CCC(=O)O)NC(=O)[C@@H]1CCCN1C(=O)[C@H](CCCNC(=N)N)NC(=O)[C@H](CCCCN)NC(=O)[C@@H]1CCCN1C(=O)[C@@H]1CCCN1C(=O)CNC(=O)CNC(=O)[C@@H](N)C(C)C)[C@@H](C)O)C(C)C)C(=O)NCC(=O)N[C@@H](CCCNC(=N)N)C(=O)N1CCC[C@H]1C(=O)N[C@@H](CCCNC(=N)N)C(=O)N[C@@H](Cc1ccccc1)C(=O)O` (H-VGGPPKRPESFKSMAELNAYLSDLAGYYTVIGRPRF-OH), the inhibition result in data set [1], in [2], in [3], in data set [5], in data set [6] and in [7] was “Active” throughout. For the same compound, the inhibition result in [8], in [9], in [10], in [13], in [14] and in data set [15] was “Active” in each case. For the same compound, the inhibition result in [16], in data set [18], in [20] and in data set [21] was “Active” in each case. The inhibition entry in data set [4], in [11] and in data set [17] was “Dde” throughout. Moreover, in [12], the outcome was Active. Moreover, the Activity result in data set [19] is “Non-Toxic”.
